Values quoted from earlier work, collected in patent US20050063935A1, “Adsorbent for cytokine, method of adsorptive removal, and apparatus adsorptive removal” (priority 2002, published 2005).

Conditions: octanol-water system; free ligand compound before immobilization

Structure (SMILES) | log P
CCCCN [n-butylamine] | 0.97
CCCCCCCCN [n-octylamine] | 2.90
